Measured values taken from patent US20230159453A1 (COCRYSTAL PHARMA, INC., priority 2020, published 2023).

These compounds were tested against SARS2 protease (Severe acute respiratory syndrome coronavirus 2, UniProt P0DTD1) (assay: SARS-CoV-2 protease inhibition assay (SARS2 FRET protease assay)). Conditions: IC50 (μM).
Assay type: biochemical
In the case of CC(C)C[C@H](NC(=O)OC1CCCC1Cc1ccccc1)C(=O)N[C@@H](C[C@@H]1CCNC1=O)C(=O)CCl (stereo partly drawn) [Compound C199, 2-Benzylcyclopentyl ((S)-1-(((S)-4-chloro-3-oxo-1-((S)-2-oxopyrrolidin-3-yl)butan-2-yl)amino)-4-methyl-1-oxopentan-2-yl)carbamate], the IC50 is reported as 0.196 µM.

Same assay, conditions: SARS-CoV-2 protease 25 nM, FRET, peptide substrate 1.3 μM, 30 minutes at 30° C., compounds 20 μM to 1.0 nM; read-out: IC50
For O=C[C@H](CCC(=O)NC1(Cc2ccccc2)CC1)NC(=O)[C@H](CC1CCCCC1)NC(=O)OCc1cccc(Cl)c1 [Compound C33, 3-Chlorobenzyl ((S)-1-(((S)-5-((1-benzylcyclopropyl)amino)-1,5-dioxopentan-2-yl)amino)-3-cyclohexyl-1-oxopropan-2-yl)carbamate], the IC50 was greater than 200 µM. CC(C)C(OC(=O)N[C@@H](CC1CCCCC1)C(=O)N[C@@H](C[C@@H]1CCNC1=O)C(=O)C(N)=O)c1ccccc1 (stereo partly drawn) [Compound C216, 2-Methyl-1-phenylpropyl ((S)-1-(((S)-4-amino-3,4-dioxo-1-((S)-2-oxopyrrolidin-3-yl)butan-2-yl)amino)-3-cyclohexyl-1-oxopropan-2-yl)carbamate] was tested, and the IC50 was 3.1 µM. CC(C)C[C@H](NC(=O)OC(c1ccccc1)C(C)(C)c1cccc(Cl)c1)C(=O)N[C@@H](C[C@@H]1CCNC1=O)C(=O)C(=O)N1CCCCC1 (stereo partly drawn) [Compound C270] gave an IC50 of 4.41 µM. Work on CC(C)C[C@H](NC(=O)O[C@@H](c1cccc(F)c1)C(C)(C)c1cccc(Cl)c1)C(=O)N[C@@H](C[C@@H]1CCNC1=O)C(=O)C(=O)NC1CC1 [Compound C285] yielded an IC50 of 0.08 µM. O=CC(CC1CC2(CCCCC2)NC1=O)NC(=O)[C@H](CC1CCCCC1)NC(=O)OC1CCCC1Cc1cccc(Cl)c1 (stereo partly drawn) [Compound C223, 2-(3-Chlorobenzyl)cyclopentyl ((2S)-3-cyclohexyl-1-oxo-1-((1-oxo-3-(2-oxo-1-azaspiro[4.5]decan-3-yl)propan-2-yl)amino)propan-2-yl)carbamate] was tested, and the IC50 was 0.781 µM. COc1cccc2[nH]c(C(=O)N[C@@H](CC3CCCCC3)C(=O)NC(CC3CC4(CCN(C(C)=O)CC4)NC3=O)C(=O)C(N)=O)cc12 (stereo partly drawn) [Compound C117, N-((2S)-1-((1-(8-Acetyl-2-oxo-1,8-diazaspiro[4.5]decan-3-yl)-4-amino-3,4-dioxobutan-2-yl)amino)-3-cyclohexyl-1-oxopropan-2-yl)-4-methoxy-1H-indole-2-carboxamide] gave an IC50 of 0.0553 µM. CC(C)(COC(=O)N[C@H](C(=O)N[C@@H](C[C@@H]1CCNC1=O)C(O)S(=O)(=O)O)C(C)(C)C)c1cccc(Cl)c1 (stereo partly drawn) [Compound C111, Sodium (2S)-2-((S)-2-(((2-(3-chlorophenyl)-2-methylpropoxy)carbonyl)amino)-3,3-dimethylbutanamido)-1-hydroxy-3-((S)-2-oxopyrrolidin-3-yl)propane-1-sulfonate] gave an IC50 of 0.491 µM. CC1(C)CC(CC(C=O)NC(=O)[C@H](CC2CCCCC2)NC(=O)OCc2cccc(Cl)c2)C(=O)N1 (stereo partly drawn) [Compound C198, 3-chlorobenzyl ((2S)-3-cyclohexyl-1-((1-(5,5-dimethyl-2-oxopyrrolidin-3-yl)-3-oxopropan-2-yl)amino)-1-oxopropan-2-yl)carbamate] showed an IC50 of 0.0047 µM. For CC(C)C[C@H](NC(=O)OC(c1ccc(F)cc1)C(C)(C)c1cccc(Cl)c1)C(=O)N[C@H](C=O)C[C@@H]1CCNC1=O (stereo partly drawn) [Compound C238, 2-(3-chlorophenyl)-1-(4-fluorophenyl)-2-methylpropyl ((S)-4-methyl-1-oxo-1-(((S)-1-oxo-3-((S)-2-oxopyrrolidin-3-yl)propan-2-yl)amino)pentan-2-yl)carbamate], the IC50 was 0.0001 µM. O=C[C@H](C[C@@H]1CCNC1=O)NC(=O)[C@H](CC1CCCCC1)NC(=O)OC(c1cccc(Cl)c1)C1(c2cccc(Cl)c2)CC1 (stereo partly drawn) [Compound C250, (3-Chlorophenyl)(1-(3-chlorophenyl)cyclopropyl)methyl ((S)-3-cyclohexyl-1-oxo-1-(((S)-1-oxo-3-((S)-2-oxopyrrolidin-3-yl)propan-2-yl)amino)propan-2-yl)carbamate] showed an IC50 of 0.01 µM. CC(C)(c1cccc(Cl)c1)C(OC(=O)N[C@@H](Cc1ccccc1)C(=O)N[C@@H](C[C@@H]1CCNC1=O)C(=O)C(N)=O)c1ccccc1 (stereo partly drawn) [Compound C254] gave an IC50 of 4.27 µM. With O=C(N[C@@H](CC1CCCCC1)C(=O)NC(CC1CC2(CCOCC2)NC1=O)C(=O)C(=O)NC1CC1)OC1CCCC1Cc1cccc(Cl)c1 (stereo partly drawn) [Compound C206, 2-(3-Chlorobenzyl)cyclopentyl ((2S)-3-cyclohexyl-1-((4-(cyclopropylamino)-3,4-dioxo-1-(2-oxo-8-oxa-1-azaspiro[4.5]decan-3-yl)butan-2-yl)amino)-1-oxopropan-2-yl)carbamate] the IC50 was 5.11 µM. Work on CS(=O)(=O)N1CCC2(CC1)CC(CC(C=O)NC(=O)[C@H](CC1CCCCC1)NC(=O)OC1CCCC1Cc1cccc(Cl)c1)C(=O)N2 (stereo partly drawn) [Compound C189, 2-(3-Chlorobenzyl)cyclopentyl ((2S)-3-cyclohexyl-1-((1-(8-(methylsulfonyl)-2-oxo-1,8-diazaspiro[4.5]decan-3-yl)-3-oxopropan-2-yl)amino)-1-oxopropan-2-yl)carbamate] yielded an IC50 of 0.34 µM. With CC(=O)N1CCC2(CC1)CC(CC(C=O)NC(=O)[C@H](CC1CCCCC1)NC(=O)OCc1cccc(Cl)c1)C(=O)N2 (stereo partly drawn) [Compound C32, 3-Chlorobenzyl ((2S)-1-((1-(8-acetyl-2-oxo-1,8-diazaspiro[4.5]decan-3-yl)-3-oxopropan-2-yl)amino)-3-cyclohexyl-1-oxopropan-2-yl)carbamate] the IC50 was 0.023 µM. Compound CC(C)C[C@H](NC(=O)OC1(Cc2cccc(Cl)c2)CC1)C(=O)N[C@@H](C[C@@H]1CCNC1=O)C(=O)C(N)=O [Compound C88, 1-(3-Chlorobenzyl) cyclopropyl ((S)-1-(((S)-4-amino-3,4-dioxo-1-((S)-2-oxopyrrolidin-3-yl)butan-2-yl)amino)-4-methyl-1-oxopentan-2-yl)carbamate] has an IC50 of 1.3 µM. CC(C)(c1cccc(Cl)c1)C(OC(=O)N[C@@H](CC1CCCCC1)C(=O)N[C@H](C=O)C[C@@H]1CCNC1=O)c1ccc2ccccc2c1 (stereo partly drawn) [Compound C127] showed an IC50 of 0.0036 µM. In the case of CC(C)(c1cccc(Cl)c1)C(OC(=O)N[C@@H](Cc1ccccc1)C(=O)N[C@H](C=O)C[C@@H]1CCNC1=O)c1ccccc1 (stereo partly drawn) [Compound C257], the IC50 is reported as greater than 20 µM. In the case of CC(C)C[C@H](NC(=O)OC1CCCC1Cc1cccc(Cl)c1)C(=O)N[C@H](C=O)C[C@@H]1CCNC1=O (stereo partly drawn) [Compound C152, 2-(3-chlorobenzyl)cyclopentyl ((S)-4-methyl-1-oxo-1-(((S)-1-oxo-3-((S)-2-oxopyrrolidin-3-yl)propan-2-yl)amino)pentan-2-yl)carbamate], the IC50 is reported as 0.0118 µM. For CC(C)C[C@H](NC(=O)OC(C)(C)Cc1ccccc1)C(=O)N[C@@H](C[C@@H]1CCNC1=O)C(=O)C(N)=O [Compound C79], the IC50 was 3.8 µM. CC(C)C[C@H](NC(=O)OC(c1ccccc1)C1(c2cccc(Cl)c2)CCCC1)C(=O)N[C@H](C=O)C[C@@H]1CCNC1=O (stereo partly drawn) [Compound C278] showed an IC50 of 0.02 µM. Work on CC(C)C[C@H](NC(=O)OC1(Cc2ccccc2)CC1)C(=O)N[C@@H](C[C@@H]1CCNC1=O)C(O)S(=O)(=O)O (stereo partly drawn) [Compound C48, (2S)-2-((S)-2-(((1-Benzylcyclopropoxy)carbonyl)amino)-4-methylpentanamido)-1-hydroxy-3-((S)-2-oxopyrrolidin-3-yl) propane-1-sulfonate] yielded an IC50 of 0.241 µM. With CC(C)C[C@H](NC(=O)OC(c1ccccc1)C(C)(C)c1cccc(Cl)c1)C(=O)N[C@@H](C[C@@H]1CCNC1=O)C(=O)C(=O)N1CCNCC1 (stereo partly drawn) [Compound C274] the IC50 was 12 µM. CC1(C)CC(C[C@@H](C=O)NC(=O)[C@H](CC2CCCCC2)NC(=O)OC2CCCC2Cc2cccc(Cl)c2)C(=O)N1 (stereo partly drawn) [Compound C156, 2-(3-Chlorobenzyl)cyclopentyl ((2S)-3-cyclohexyl-1-((1-(5,5-dimethyl-2-oxopyrrolidin-3-yl)-3-oxopropan-2-yl)amino)-1-oxopropan-2-yl)carbamate] was tested, and the IC50 was 0.0528 µM. O=C[C@H](CC1CC2(CCOCC2)NC1=O)NC(=O)[C@H](CC1CCCCC1)NC(=O)OCc1cccc(Cl)c1 (stereo partly drawn) [Compound C200, 3-Chlorobenzyl ((2S)-3-cyclohexyl-1-oxo-1-(((2S)-1-oxo-3-(2-oxo-8-oxa-1-azaspiro[4.5]decan-3-yl)propan-2-yl)amino)propan-2-yl)carbamate] was tested, and the IC50 was 0.00065 µM. For O=C(N[C@@H](CC1CCCCC1)C(=O)N[C@@H](C[C@@H]1CCNC1=O)C(=O)C(=O)NC1CC1)OCc1cccc(Cl)c1 [Compound C173], the IC50 was 1.43 µM. With CC(C)(c1cccc(Cl)c1)C(OC(=O)N[C@@H](CC1CCCCC1)C(=O)N[C@@H](C[C@@H]1CCNC1=O)C(=O)C(N)=O)c1ccc2ccccc2c1 (stereo partly drawn) [Compound C122, 2-(3-Chlorophenyl)-2-methyl-1-(naphthalen-2-yl)propyl ((S)-1-(((S)-4-amino-3,4-dioxo-1-((S)-2-oxopyrrolidin-3-yl)butan-2-yl)amino)-3-cyclohexyl-1-oxopropan-2-yl)carbamate] the IC50 was 0.456 µM. O=C(N[C@@H](CC1CCCCC1)C(=O)NC(CC1CC2(CCCCC2)NC1=O)C(=O)C(=O)NC1CC1)OC1CCCC1Cc1cccc(Cl)c1 (stereo partly drawn) [Compound C192, 2-(3-Chlorobenzyl)cyclopentyl ((2S)-3-cyclohexyl-1-((4-(cyclopropylamino)-3,4-dioxo-1-(2-oxo-1-azaspiro[4.5]decan-3-yl)butan-2-yl)amino)-1-oxopropan-2-yl)carbamate] was tested, and the IC50 was 0.617 µM. CC(=O)N1CCC2(CC1)CC(CC(C=O)NC(=O)[C@H](CC(C)C)NC(=O)OCc1cccc(Cl)c1)C(=O)N2 (stereo partly drawn) [Compound C54, 3-Chlorobenzyl ((2S)-1-((1-(8-acetyl-2-oxo-1,8-diazaspiro[4.5]decan-3-yl)-3-oxopropan-2-yl)amino)-4-methyl-1-oxopentan-2-yl)carbamate] gave an IC50 of 0.1 µM. CC(C)(c1cccc(Cl)c1)C(OC(=O)N[C@@H](CC1CCCCC1)C(=O)N[C@H](C=O)C[C@@H]1CCNC1=O)c1cccc(Cl)c1 (stereo partly drawn) [Compound C106, 1,2-Bis(3-chlorophenyl)-2-methylpropyl ((S)-3-cyclohexyl-1-oxo-1-(((S)-1-oxo-3-((S)-2-oxopyrrolidin-3-yl)propan-2-yl)amino)propan-2-yl)carbamate] gave an IC50 of 0.0001 µM.
